Experimental findings from patent publication US12202844B2, “MAP4K1 inhibitors” (Blueprint Medicines Corporation, priority 2021, dated 2025) are described below.

Structures are written as SMILES.

Experiment [1] has as its system Primary T Cell (expanded CD3+ T cells). Description: T cell enhancement of cytokines: IL2 measurement (HTRF) in stimulated expanded CD3+ T cells. The format is cell-based, human. As to conditions: Homo sapiens, T-cell, 24 h, plate-bound anti-CD3 and soluble anti-CD28, 24 h, IL2 by HTRF; read-out: IL-2 Primary T Cell EC50. As to the method:
T cells are isolated from whole blood of healthy donors by immunomagnetic negative selection following manufacture's protocol (StemCell Technologies, human T cell isolation kit). Purity of isolated cells is assessed by flow cytometry and yields 95-98% CD3^+ T cells. For expansion of T cells, 1×10^6 cells/well are plated in serum free cell expansion media (ThermoFisher) containing 30 U of recombinant human IL2 (R&D) and stimulated with 25 ul of CD3/CD28 beads (Invitrogen) in 24 well plates for 3-4 days. T cells are then expanded in 175 cm flasks and maintained at a cell density of 1 to 2.5×10^6 cells/ml days by addition of ⅔ of fresh media every 2-3 days. After 10-14 days, cells are frozen in BamBanker freezing media (Thermo) and stored in liquid nitrogen.
For IL2 measurement, expanded CD3^+ T cells are dispensed at 100K cells/well (cultured in X-VIVO 10 Serum-free media) and are stimulated with plate-bound anti-CD3 and soluble anti-CD28 in the presence of vehicle or compound of the disclosure at various concentrations for 24 h. As outlined in the manufacturer's protocol (Cisbio), 16 μL of conditioned media is transferred to a white 384-well low volume plate. Following a 24 h incubation with the anti-IL2 antibodies, the homogenous time resolved fluorescence (HTRF) is measured.

A further experiment deals with T1, MAP4K1 (HPK1) (Homo sapiens, UniProt Q92918).
T1 construct: purchased Invitrogen
T1 sequence (Q92918 whole entry): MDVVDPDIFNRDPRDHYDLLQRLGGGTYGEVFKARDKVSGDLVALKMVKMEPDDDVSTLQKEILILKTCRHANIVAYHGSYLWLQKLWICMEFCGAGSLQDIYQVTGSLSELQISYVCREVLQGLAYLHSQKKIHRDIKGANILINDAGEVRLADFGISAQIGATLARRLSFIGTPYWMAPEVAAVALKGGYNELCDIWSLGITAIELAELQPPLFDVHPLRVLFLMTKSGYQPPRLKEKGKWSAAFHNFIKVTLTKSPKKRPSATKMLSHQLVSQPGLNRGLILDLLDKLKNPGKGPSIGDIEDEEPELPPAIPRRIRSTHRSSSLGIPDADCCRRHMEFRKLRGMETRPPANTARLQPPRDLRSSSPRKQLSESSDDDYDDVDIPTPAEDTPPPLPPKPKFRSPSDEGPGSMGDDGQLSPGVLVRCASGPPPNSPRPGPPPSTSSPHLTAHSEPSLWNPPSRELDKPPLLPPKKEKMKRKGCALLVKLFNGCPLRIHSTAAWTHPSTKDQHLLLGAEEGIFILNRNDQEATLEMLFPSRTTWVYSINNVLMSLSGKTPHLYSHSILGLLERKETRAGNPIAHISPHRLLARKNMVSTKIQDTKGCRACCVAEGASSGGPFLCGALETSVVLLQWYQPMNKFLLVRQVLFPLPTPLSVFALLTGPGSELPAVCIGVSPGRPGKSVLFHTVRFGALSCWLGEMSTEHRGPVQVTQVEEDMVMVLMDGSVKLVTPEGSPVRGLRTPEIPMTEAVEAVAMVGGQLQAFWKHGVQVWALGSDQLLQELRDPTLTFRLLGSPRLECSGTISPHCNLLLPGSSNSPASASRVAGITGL
Description: Inhibition of MAP4K1 biochemical enzymatic activity (EZReader 2 electrophoretic mobility shift). As to conditions: HPK1 (Invitrogen), S6K2tide 1.5 μM, 120 min; ATP 26 μM or 1000 μM (not given). An outline of the steps: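 Untreated enzyme (0.1-15 nM) was incubated with 1.5 μM fluorescent peptide and 20-1000 μM ATP (apparent Km or 1 mM) in HEPES pH 7.5, MgCl2, DTT, Brij 35 at 25° C. for 60-180 min, with 1% DMSO and a 10-point 4-fold compound series. After an EDTA stop, product/substrate peptide peak ratio was read by mobility shift.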

`CC[C@@](C)(N)c1cnc(O[C@H](C)C[C@@H](C)S(C)(=O)=O)c2cnc(Nc3ccc4c(n3)C(C)(C)[C@H](C)OC4=O)cc12` (single isomer, unassigned) [Compound 186]: in experiment [1], the EC50 amounted to 15 nM. In addition, the IC50 at MAP4K1 (HPK1) amounted to 0.15 nM.

As for `C[C@@H]1c2nc(Nc3cc4c(C(C)(C)N)cnc(OC5CS(=O)(=O)C5)c4cn3)ccc2C(=O)OC1(C)C` [Compound 3], in experiment [1], the EC50 was found to be 39 nM. Further, at MAP4K1 (HPK1), the IC50 turned out to be 0.12 nM.

Regarding `C[C@@H]1OC(=O)c2cc(Nc3cncc4c(OCCCS(C)(=O)=O)ncc(C(C)(C)N)c34)cnc2[C@H]1C` [Compound 7], the EC50 in experiment [1] was determined as 11 nM. In addition, at MAP4K1 (HPK1), the concentration for half-maximal inhibition (IC50) amounted to 0.28 nM.

`CC(C)(N)c1cnc(O[C@H]2C[C@@H](S(C)(=O)=O)C2)c2cnc(Nc3ccc4c(n3)C(C)(C)COC4=O)cc12` [Compound 11]: the EC50 in experiment [1] was 39 nM. At MAP4K1 (HPK1), the IC50 turned out to be 0.29 nM.

For the molecule `C[C@@H]1OC(=O)c2ccc(Nc3cc4c(C(C)(C)N)cnc(O[C@H]5C[C@@H](S(C)(=O)=O)C5)c4cn3)nc2[C@H]1C` [Compound 13], the EC50 in experiment [1] came to 15 nM. In addition, the half-inhibitory concentration (IC50) at MAP4K1 (HPK1) came to 0.12 nM.

For `C[C@@H]1OC(=O)c2ccc(Nc3cc4c(C(C)(C)N)cnc(OC5CN(S(C)(=O)=O)C5)c4cn3)nc2[C@H]1C` [Compound 15], the EC50 in experiment [1] came out at 13 nM. At MAP4K1 (HPK1), the IC50 stood at 0.1 nM.

`C[C@@H]1c2nc(Nc3cc4c(C(C)(C)N)ccc(O[C@H]5C[C@@H](S(C)(=O)=O)C5)c4cn3)ccc2C(=O)OC1(C)C` [Compound 27]: in experiment [1], the EC50 worked out at 15 nM. Also, the IC50 on MAP4K1 (HPK1) stood at 0.08 nM.

For `C[C@@H]1c2nc(Nc3cc4c(C(C)(C)N)cnc(N[C@H]5C[C@@H](S(C)(=O)=O)C5)c4cn3)ccc2C(=O)OC1(C)C` [Compound 28], the EC50 in experiment [1] was determined as 250 nM. The IC50 on MAP4K1 (HPK1) was 0.14 nM.

For the molecule `CC[C@@](C)(N)c1cnc(O[C@H]2C[C@@H](S(C)(=O)=O)C2)c2cnc(Nc3ccc4c(n3)[C@@H](C)[C@H](C)OC4=O)cc12` [Compound 38], in experiment [1], the concentration giving a half-maximal response (EC50) was determined as 5 nM. For the same molecule, the IC50 at MAP4K1 (HPK1) came out at 0.12 nM.

Turning to `CCS(=O)(=O)[C@H]1C[C@@H](Oc2ncc(C(C)(C)N)c3cc(Nc4ccc5c(n4)[C@@H](C)[C@H](C)OC5=O)ncc23)C1` [Compound 39, (7S,8R)-2-((5-(2-Aminopropan-2-yl)-8-((cis)-3-(ethylsulfonyl)cyclobutoxy)-2,7-naphthyridin-3-yl)amino)-7,8-dimethyl-7,8-dihydro-5H-pyrano[4,3-b]pyridin-5-one], the EC50 in experiment [1] was found to be 11 nM. Moreover, the IC50 on MAP4K1 (HPK1) is 0.13 nM.

`C[C@@H]1c2nc(Nc3cc4c(C(C)(C)N)cnc(O[C@H]5C[C@@H](S(C)(=O)=O)C5)c4cn3)ccc2C(=O)OC1(C)C` [Compound 42, (R)-2-((5-(2-Aminopropan-2-yl)-8-(cis-3-(methylsulfonyl)cyclobutoxy)-2,7-naphthyridin-3-yl)amino)-7,7,8-trimethyl-7,8-dihydro-5H-pyrano[4,3-b]pyridin-5-one]: the EC50 in experiment [1] was 9 nM. At MAP4K1 (HPK1), the IC50 is 0.09 nM.

Turning to `C[C@H](C[C@@H](C)S(C)(=O)=O)Oc1ncc(C(C)(C)N)c2cc(Nc3ccc4c(n3)[C@@H](C)[C@H](C)OC4=O)ncc12` [Compound 51], in experiment [1], the EC50 was 25 nM. In addition, the concentration for half-maximal inhibition (IC50) on MAP4K1 (HPK1) is 0.15 nM.

As to `CC[C@@](C)(N)c1cnc(O[C@H](C)CCS(C)(=O)=O)c2cnc(Nc3ccc4c(n3)[C@@H](C)[C@H](C)OC4=O)cc12` [Compound 52, (7S,8R)-2-((5-((R)-2-Aminobutan-2-yl)-8-(((R)-4-(methylsulfonyl)butan-2-yl)oxy)-2,7-naphthyridin-3-yl)amino)-7,8-dimethyl-7,8-dihydro-5H-pyrano[4,3-b]pyridin-5-one], the EC50 in experiment [1] is 9 nM. For the same molecule, the IC50 at MAP4K1 (HPK1) stood at 0.13 nM.

As to `CC[C@@](C)(N)c1cnc(O[C@@H](C)CCS(C)(=O)=O)c2cnc(Nc3ccc4c(n3)[C@@H](C)[C@H](C)OC4=O)cc12` [Compound 53], the concentration giving a half-maximal response (EC50) in experiment [1] was found to be 21 nM. Also, the IC50 on MAP4K1 (HPK1) worked out at 0.11 nM.

For `C[C@@H]1OC(=O)c2ccc(Nc3cc4c([C@](C)(N)C5CC5)cnc(O[C@H]5C[C@@H](S(C)(=O)=O)C5)c4cn3)nc2[C@H]1C` [Compound 60], in experiment [1], the EC50 was 10 nM. Moreover, at MAP4K1 (HPK1), the IC50 came to 0.19 nM.
